Several values for one entry are separate records, joined by “and”; a condition that tells them apart may be missing. Equal values may be shown once. Inconclusive results and toxic doses are left out.
Tested on: BDF1 mice, P388 leukemia ip, median survival T/C
Experiment: NCI In Vivo Anticancer Drug Screen. Data for tumor model P388 Leukemia (intraperitoneal) in B6D2F1 (BDF1) mice
Details: endpoint: median survival time, higher = longer survival
Method in brief: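 Compound-treated tumour-bearing mice were compared with vehicle-treated controls. Survival was recorded, and the value is the treated-group measurement divided by the control-group measurement (T/C).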

[1] = dose: 100.0 mg/kg/injection, schedule: Q01DX009 (ip), vehicle: saline with Tween-80
[2] = dose: 25.0 mg/kg/injection, schedule: Q01DX009 (ip), vehicle: saline
[3] = dose: 50.0 mg/kg/injection, schedule: Q01DX009 (ip), vehicle: saline
[4] = dose: 100.0 mg/kg/injection, schedule: Q04DX003 (ip), vehicle: Klucel (hydroxypropylcellulose) (HPC)
[5] = dose: 200.0 mg/kg/injection, schedule: Q04DX003 (ip), vehicle: Klucel (hydroxypropylcellulose) (HPC)

Structure (SMILES): COc1c(O)c(OC)c(C(=O)/C=C/c2ccccc2)c(O)c1OC
- T/C (dose: 25.0 mg/kg/injection, schedule: Q01DX009 (ip), vehicle: saline with Tween-80): 107 % of control
- T/C (dose: 50.0 mg/kg/injection, schedule: Q01DX009 (ip), vehicle: saline with Tween-80): 114 % of control
- T/C [1]: 99 % of control

Structure (SMILES): CCCC(N=Cc1ccccc1O)C(=O)O.CCCC(N=Cc1ccccc1O)C(=O)O.[Fe] (configuration not stated)
- T/C (dose: 12.5 mg/kg/injection, schedule: Q01DX009 (ip), vehicle: saline): 86 % of control
- T/C [2]: 90 % of control
- T/C [3]: 90 % of control
- T/C (dose: 50.0 mg/kg/injection, schedule: Q04DX003 (ip), vehicle: saline): 90 % of control

Structure (SMILES): Cc1c(N)nc(=S)[nH]c1C(=O)O
- T/C (dose: 50.0 mg/kg/injection, schedule: Q04DX003 (ip), vehicle: Klucel (hydroxypropylcellulose) (HPC)): 113 % of control
- T/C (dose: 100.0 mg/kg/injection, schedule: Q01DX001 (ip), vehicle: Klucel (hydroxypropylcellulose) (HPC)): 109 % of control
- T/C [4]: 100 % of control
- T/C (dose: 200.0 mg/kg/injection, schedule: Q01DX001 (ip), vehicle: Klucel (hydroxypropylcellulose) (HPC)): 109 % of control
- T/C [5]: 100 % of control
- T/C (dose: 400.0 mg/kg/injection, schedule: Q01DX001 (ip), vehicle: Klucel (hydroxypropylcellulose) (HPC)): 104 % of control

Structure (SMILES): COc1ccc2ccccc2c1C1NC(=O)c2ccccc2N1 (configuration not stated)
- T/C (dose: 25.0 mg/kg/injection, schedule: Q01DX009 (ip), vehicle: Klucel (hydroxypropylcellulose) (HPC)): 115 % of control
- T/C (dose: 50.0 mg/kg/injection, schedule: Q01DX009 (ip), vehicle: Klucel (hydroxypropylcellulose) (HPC)): 100 % of control
- T/C (dose: 200.0 mg/kg/injection, schedule: Q01DX009 (ip), vehicle: Klucel (hydroxypropylcellulose) (HPC)): 166 % of control

Structure (SMILES): O=C(O)C(CSC(c1ccccc1)(c1ccccc1)c1ccccc1)N=Cc1cccs1 (configuration not stated)
- T/C (dose: 2.1 mg/kg/injection, schedule: Q01DX009 (ip), vehicle: saline): 118 % of control
- T/C (dose: 3.1 mg/kg/injection, schedule: Q01DX009 (ip), vehicle: saline): 109 % of control
- T/C (dose: 7.2 mg/kg/injection, schedule: Q01DX009 (ip), vehicle: saline): 175 % of control
- T/C (dose: 11.0 mg/kg/injection, schedule: Q01DX009 (ip), vehicle: saline): 189 % of control
- T/C (dose: 16.0 mg/kg/injection, schedule: Q01DX009 (ip), vehicle: saline): 163 % of control
- T/C [2]: 185 % of control
- T/C [3]: 200 % of control
- T/C (dose: 66.0 mg/kg/injection, schedule: Q01DX009 (ip), vehicle: saline): 272 % of control and 177 % of control
- T/C (dose: 100.0 mg/kg/injection, schedule: Q01DX009 (ip), vehicle: saline): 250 % of control and 90 % of control and 218 % of control
- T/C (dose: 150.0 mg/kg/injection, schedule: Q01DX009 (ip), vehicle: saline): 100 % of control

Structure (SMILES): O=c1[nH]c(SCc2ccc([N+](=O)[O-])cc2)nc2ccccc12
- T/C [4]: 95 % of control
- T/C [5]: 90 % of control

Structure (SMILES): COc1ccccc1NC(=O)Oc1c(C(C)C)cccc1C(C)C
- T/C [4]: 95 % of control
- T/C [5]: 87 % of control
- T/C (dose: 400.0 mg/kg/injection, schedule: Q04DX003 (ip), vehicle: Klucel (hydroxypropylcellulose) (HPC)): 100 % of control

Structure (SMILES): Nc1[nH]nc2nccnc12
- T/C [1]: 108 % of control
- T/C (dose: 100.0 mg/kg/injection, schedule: Q04DX003 (ip), vehicle: saline with Tween-80): 100 % of control
- T/C (dose: 200.0 mg/kg/injection, schedule: Q01DX009 (ip), vehicle: saline with Tween-80): 100 % of control
- T/C (dose: 200.0 mg/kg/injection, schedule: Q04DX003 (ip), vehicle: saline with Tween-80): 104 % of control
- T/C (dose: 400.0 mg/kg/injection, schedule: Q01DX009 (ip), vehicle: saline with Tween-80): 100 % of control
- T/C (dose: 400.0 mg/kg/injection, schedule: Q04DX003 (ip), vehicle: saline with Tween-80): 109 % of control

From PubChem BioAssay AID328 (DTP/NCI, 2004)
